Results reported in patent US10414721B1, “Inhibitor of endocannabinoid cellular reuptake” (University of Bern, priority 2018, dated 2019).

Tests used:
[1] = system: C57BL6/N mice; assay: Holeboard (HB) test; format: in vivo, mouse; conditions: 3 mg/kg, 1 h post injection
Procedure: WOBE437 was initially assessed in a battery of four individual tests typically associated with CB1 receptor activation in mice (nociception, locomotion, body temperature and cataleptic behavior), collectively referred to as the “tetrad”. Dose-response experiments identified 10 mg/kg as the lowest dose to elicit a moderate but complete tetrad in BALB/c mice upon intraperitoneal (i.p.) administration (FIGS. 3A-D). […] To assess whether the WOBE437-induced effects were CB1 receptor-mediated, mice were pre-treated with the selective antagonist/inverse agonist rimonabant (SR1). […] These experiments provided a proof-of-concept for the mechanism of action of WOBE437 as a novel “indirect CB1 receptor agonist”. In subsequent studies, the effects of WOBE437 in pain, inflammatory and anxiety models were investigated. […] Both effects were reversed by SR1.
WOBE437 and RX-055 were tested in independent laboratories, in different mouse strains and in multiple (behavioral) models for cannabimimetic, analgesic, anti-inflammatory and anxiolytic-effects in wild-type and phenotypical CB1-KO mice as described in Chicca 2017.

[2] = biological target: CB2 receptor (Homo sapiens, UniProt P34972); assay: CB2 receptor binding assay
CB2 receptor, sequence (P34972 whole entry): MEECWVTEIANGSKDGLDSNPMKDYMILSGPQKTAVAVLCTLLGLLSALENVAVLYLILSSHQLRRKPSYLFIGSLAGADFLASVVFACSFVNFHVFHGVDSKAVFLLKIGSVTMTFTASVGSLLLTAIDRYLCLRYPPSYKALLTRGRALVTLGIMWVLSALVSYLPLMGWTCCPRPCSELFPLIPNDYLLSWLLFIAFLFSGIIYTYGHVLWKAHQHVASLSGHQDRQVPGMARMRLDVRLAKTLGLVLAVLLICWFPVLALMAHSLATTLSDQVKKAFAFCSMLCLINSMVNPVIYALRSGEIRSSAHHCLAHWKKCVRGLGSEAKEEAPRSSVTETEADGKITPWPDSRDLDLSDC
Procedure: (§1) CB1 and CB2 receptor binding assays [^35S]GTPγS assays were performed as previously described. WOBE437 was profiled in more detail in an extended CNS adverse drug reaction screening panel (CEREP).

[3] = system: 45 CNS-related receptors; assay: CNS adverse drug reaction screening panel (CEREP); format: binding; conditions: including cannabinoid receptors
Procedure: as §1

[4] = biological target: T1, MAGL (Mus musculus, UniProt O35678); assay: MAGL activity (ABPP and radioactivity-based hydrolytic assays); format: biochemical; conditions: ABPP in mouse brain homogenate and hydrolytic assays
T1 construct: membrane preparations obtained from mouse brains; from tissue; host or cells: mouse brain membranes
T1 sequence (O35678 whole entry): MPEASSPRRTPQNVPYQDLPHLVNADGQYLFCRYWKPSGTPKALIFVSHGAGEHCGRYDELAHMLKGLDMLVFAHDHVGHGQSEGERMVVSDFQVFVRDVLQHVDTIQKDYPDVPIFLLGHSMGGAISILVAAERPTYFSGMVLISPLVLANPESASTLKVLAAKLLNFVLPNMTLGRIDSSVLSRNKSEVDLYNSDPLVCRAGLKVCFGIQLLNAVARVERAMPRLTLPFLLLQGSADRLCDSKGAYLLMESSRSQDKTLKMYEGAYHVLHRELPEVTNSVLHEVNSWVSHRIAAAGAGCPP
Procedure: ABPP experiments were performed using membrane preparations obtained from mouse brains as described earlier.
(§2) FAAH, ABHDs, MAGL and COX-2 activity assays were performed using cell homogenates, human recombinant enzymes and mouse, rat and pig brain homogenates as previously described.

[5] = 14C-WOBE437 saturation binding to mouse brain membranes; conditions: binding kinetics, high affinity site; read-out: affinity for membrane binding site
Procedure: In addition to their effects on AEA uptake, the inhibition of FAAH was thoroughly investigated for all nanomolar inhibitors. […] The lack of significant FAAH inhibition by WOBE437 was established in different assay systems using human recombinant enzyme, cell and brain homogenates. […] Importantly, WOBE437 (1 μM) inhibited AEA uptake also in primary mouse cortical neurons by 50% after 2-7 min of incubation with a smaller inhibition (20-35%) upon longer incubation (10-20 min, FIG. 1F). […] In Neuro2a cells, incubation with WOBE437 (5 μM) for 2 and 5 min reduced overall uptake by 40%. (FIG. 1G). […] Then cells were treated with radiolabeled ^14C-WOBE437 to investigate the cellular penetration of the compound. In U937 cells, the vast majority of the radioactive signal was collected in the extracellular and membrane-bound fractions (75-90%), with negligible amounts (5-9%) detected in the intracellular fraction (FIGS. 2A-D). […] In order to further investigate this point, ^14C-WOBE437 was applied to membrane preparations generated in-house from mouse brain and U937 cells. […] The Kd values are in line with the IC50 values shown in the functional AEA uptake assays in Neuro2a and U937 cells (FIGS. 1C and 1D). In further experiments, 10 nM of ^14C-WOBE437 was co-incubated with different concentrations of AEA and U937 membranes. […] Furthermore, the endocannabinoids AEA and noladin ether and the AEA uptake inhibitor OMDM-2 could compete with ^14C-WOBE437 binding in brain and U937 membranes. […] Secondary plots of the slope (Kmapp/Vmaxapp vs. [WOBE437]) and intercept (1/Vmaxapp vs. [WOBE437]) confirmed the competitive inhibition of AEA uptake.

[6] = Microsomal clearance, human liver microsomes; format: in vitro ADME
Procedure: Human or mice microsome clearance experiment were carried out as according to a previously describe protocol. Briefly, microsome preparation (0.5 mg/mL) plus cofactor NADPH solution was incubated with 1 μM of WOBE437 in 96-well plates at 37° C. After 1, 3, 6, 9, 15, 25, 35 and 45 min, 40 μL of the preparation was transferred and quenched with 3:1 (v/v) acetonitrile containing internal standards. Samples were then cooled and centrifuged before analysis by LC-MS/MS. Log peak area ratios (test compound peak area/internal standard peak area) are plotted against incubation time using a linear fit. The calculated slope is used to determine the intrinsic clearance. Data are obtained from single experiments measured with multiple time-points.

[7] = biological target: fatty acid binding protein 5 (FABP5) (Homo sapiens, UniProt Q01469); assay: FABP5 binding
fatty acid binding protein 5 (FABP5), sequence (Q01469 whole entry, species assumed): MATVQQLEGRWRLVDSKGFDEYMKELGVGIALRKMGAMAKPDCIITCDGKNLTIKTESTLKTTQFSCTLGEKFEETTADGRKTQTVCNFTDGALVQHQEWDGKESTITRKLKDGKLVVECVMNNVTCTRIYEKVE

[8] = system: BALB/c mice; assay: Open field test in monoarthritic mice; format: in vivo, mouse
Procedure: Potential motor changes were evaluated in an open field box (40×40×30 cm, Plexiglas). The mice were individually placed in the center and allowed to move freely for 5 min. The locomotion activity was recorded with the OpenFieldTest© and traveled distance was evaluated automatically. After every experiment, the box was cleaned with 70% ethanol to remove odors.

[9] = biological target: FAAH (Homo sapiens, UniProt O00519); assay: FAAH activity / AEA hydrolysis assay; format: biochemical; conditions: human recombinant enzyme, cell and brain homogenates; read-out: IC50 for AEA hydrolysis (FAAH) inhibition
FAAH, sequence (O00519 whole entry): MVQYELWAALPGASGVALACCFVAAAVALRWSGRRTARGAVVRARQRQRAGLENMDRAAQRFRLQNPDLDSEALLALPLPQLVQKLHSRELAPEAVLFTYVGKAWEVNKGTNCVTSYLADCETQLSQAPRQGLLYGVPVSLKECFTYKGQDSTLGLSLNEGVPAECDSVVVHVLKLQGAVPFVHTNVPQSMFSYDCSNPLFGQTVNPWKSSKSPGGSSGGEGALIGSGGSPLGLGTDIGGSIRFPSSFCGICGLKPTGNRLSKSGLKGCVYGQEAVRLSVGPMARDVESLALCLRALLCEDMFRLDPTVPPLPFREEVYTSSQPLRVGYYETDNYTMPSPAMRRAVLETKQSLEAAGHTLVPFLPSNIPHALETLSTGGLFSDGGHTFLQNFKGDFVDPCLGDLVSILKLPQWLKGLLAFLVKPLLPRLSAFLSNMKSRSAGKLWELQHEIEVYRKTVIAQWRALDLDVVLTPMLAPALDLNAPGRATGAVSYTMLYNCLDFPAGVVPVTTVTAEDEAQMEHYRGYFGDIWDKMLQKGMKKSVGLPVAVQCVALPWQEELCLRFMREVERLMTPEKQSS
Procedure: as §2

[10] = system: BALB/c male mice; assay: Tetrad test after oral administration; format: in vivo, mouse; conditions: 50 mg/kg p.o.
Procedure: The tetrad test was performed in the following order: rectal temperature, catalepsy, locomotion and analgesia. Rectal temperature was measured before (basal) and 1 h post gavage administration by using a thermocouple probe (Physitemp Instruments Inc., USA) and results were reported as the difference (Δ) between both temperatures. The bar test was used to evaluated catalepsy by placing the mouse in an imposed position with both forelimbs resting on a bar of 4 cm high; the end point of catalepsy was considered when both front limbs were removed or remained over 120 s. Locomotor activity was determined by placing the mouse on a rotarod (Erweka, Germany) at 4 rpm, the latency to fall was measured with a cut-off time of 120 s. Each mouse was previously trained to walk over the rotarod for at least 120 s. Catalepsy and locomotion were measured in three trials. Analgesia was evaluated with the hot plate test, each mouse was placed in a 54-56° C. hot plate (Thermo Scientific, USA) with a Plexiglas cylinder, the latency to first nociceptive response (paw lick or foot shake) was measured.

CCCCCCC/C=C/C=C/C(=O)NCCc1ccc(OC)c(OC)c1 [WOBE437, (2E,4E)-N-[2-(3,4-Dimethoxyphenyl)ethyl]dodeca-2,4-dienamide]
head dipping frequency [1]: significantly increased
Ki [2]: 48 µM
interaction with 45 CNS-related receptors [3]: did not exhibit any significant interaction
inhibition of MAGL [4]: did not inhibit
Kd [5]: 0.01 to 0.02 µM
clearance ([6]; 1 μM, preliminary): 0.657 mL/min/kg
bioavailability at 1 μM ([6]; human, humans, from microsomal clearance, read-out: estimated maximal bioavailability): 4%
binding to FABP5 [7]: no binding
spontaneous motor activity [8]: without significant observable changes
IC50 [9]: ≥ 10 µM
antinociception in tetrad [10]: significant antinociception
body temperature, catalepsy or motor coordination vs vehicle [10]: No statistical differences
latency of catalepsy ([10]; 1 h, control 5.9±5.4): 10.5 ± 10.6 s
change in body temperature ([10]; 1 h, control +0.1±0.8): −0.8±0.8 °C
